Measured values from ChEMBL document CHEMBL5120817, “Quinone Derivatives as Promising Anti-Helicobacter pylori Agents from Aerial Parts of Mitracarpus hirtus” (2022).
Converted amounts (≈) assume the structure as drawn.

Assays:
Format in all cases: functional
Helicobacter pylori [1] = experiment: Antibacterial activity against multidrug resistant Helicobacter pylori JRES00015 assessed as bacterial growth inhibition incubated for 3 days by broth microdilution method; settings: JRES00015, 72 h, time 3 day
Helicobacter pylori [2] = experiment: Antibacterial activity against multidrug resistant Helicobacter pylori G27 assessed as bacterial growth inhibition incubated for 3 days by broth microdilution method; settings: G27, 72 h, time 3 day
Helicobacter pylori [3] = experiment: Antibacterial activity against multidrug resistant Helicobacter pylori HP159 assessed as bacterial growth inhibition incubated for 3 days by broth microdilution method; settings: HP159, 72 h, time 3 day
Helicobacter pylori [4] = experiment: Potency index, ratio of metronidazole MIC to test compound MIC for antibacterial activity against multidrug resistant Helicobacter pylori JRES00015
Helicobacter pylori [5] = experiment: Antibiofilm activity against Helicobacter pylori G27 assessed as reduction in viable cells count at 4 times MIC
Helicobacter pylori [6] = experiment: Antibiofilm activity against Helicobacter pylori G27 assessed as reduction in preformed bacterial biofilm at 4 times MIC by crystal violet staining based assay; design: scale not given: the % may be the effect or the level left
Helicobacter pylori [7] = experiment: Antibiofilm activity against Helicobacter pylori G27 assessed as reduction in viable bacteria within biofilms at 0.25 ug/ml incubated for 20 hrs by alamar blue assay; settings: dose 0.25 µg/ml

Structure (SMILES)	MIC (Helicobacter pylori [1]) [µg/mL]	MIC (Helicobacter pylori [2]) [µg/mL]	MIC (Helicobacter pylori [3]) [µg/mL]	Ratio (Helicobacter pylori [4])	Activity (Helicobacter pylori [5]) [log10CFU/ml]	Activity (Helicobacter pylori [6]) [%]	Activity (Helicobacter pylori [7]) [%]
CO[C@H]1OCc2c(c(O[C@@H]3O[C@H](CO)[C@@H](O)[C@H](O)[C@H]3O)c3ccccc3c2O[C@@H]2O[C@H](C)[C@@H](O)[C@H](O)[C@H]2O)[C@@H]1O	32 (≈ 56.1 µM)	64 (≈ 112 µM)	64 (≈ 112 µM)	–	–	–	–
Cc1ccc2c(c1)C(=O)c1cc(O)c(O)cc1C2=O	32 (≈ 126 µM)	32 (≈ 126 µM)	32 (≈ 126 µM)	–	–	–	–
C[C@H]1O[C@@H](Oc2c3c(c(O[C@@H]4O[C@H](CO)[C@@H](O)[C@H](O)[C@H]4O)c4ccccc24)C=COC3)[C@H](O)[C@@H](O)[C@@H]1O	32 (≈ 61.2 µM)	32 (≈ 61.2 µM)	32 (≈ 61.2 µM)	–	–	–	–
CO[C@@H]1Cc2c(c(O[C@@H]3O[C@H](CO)[C@@H](O)[C@H](O)[C@H]3O)c3ccccc3c2O[C@@H]2O[C@H](CO)[C@@H](O)[C@H](O)[C@H]2O)CO1	> 64	> 64	> 64	–	–	–	–
CO[C@H]1Cc2c(c(O[C@@H]3O[C@H](CO)[C@@H](O)[C@H](O)[C@H]3O)c3ccccc3c2O[C@@H]2O[C@H](CO)[C@@H](O)[C@H](O)[C@H]2O)CO1	> 64	> 64	> 64	–	–	–	–
CC[C@H]1OC(=O)[C@H](C)[C@@H](O[C@H]2C[C@@](C)(OC)[C@@H](O)[C@H](C)O2)[C@H](C)[C@@H](O[C@@H]2O[C@H](C)C[C@H](N(C)C)[C@H]2O)[C@](C)(OC)C[C@@H](C)C(=O)[C@H](C)[C@@H](O)[C@]1(C)O [CLARITHROMYCIN]	2 (≈ 2.67 µM)	0.008 (≈ 0.0107 µM)	2 (≈ 2.67 µM)	–	–	–	–
C/C(=C/Cc1c(C(=O)O)c(O[C@@H]2O[C@H](CO)[C@@H](O)[C@H](O)[C@H]2O)c2ccccc2c1O[C@@H]1O[C@H](CO)[C@@H](O)[C@H](O)[C@H]1O)CO	> 64	> 64	> 64	–	–	–	–
COc1cc2c(cc1O)C(=O)c1cc(C)ccc1C2=O	16 (≈ 59.6 µM)	16 (≈ 59.6 µM)	8 (≈ 29.8 µM)	–	–	–	–
C[C@H]1COc2c(N3CCN(C)CC3)c(F)cc3c(=O)c(C(=O)O)cn1c23.C[C@H]1COc2c(N3CCN(C)CC3)c(F)cc3c(=O)c(C(=O)O)cn1c23.O [LEVOFLOXACIN]	16	0.25	8	–	–	–	–
Cc1ccc2c(c1)C(=O)c1cc(O)ccc1C2=O	16 (≈ 67.2 µM)	8 (≈ 33.6 µM)	8 (≈ 33.6 µM)	–	–	–	–
O=C1C2=C(C(=O)c3ccccc31)C(O)OCC2 (stereo not given)	0.0625 (≈ 0.271 µM)	0.125 (≈ 0.543 µM)	0.125 (≈ 0.543 µM)	512	–	–	–
COC(=O)c1ccc2c(c1)C(=O)c1cc(O)ccc1C2=O	2 (≈ 7.09 µM)	2 (≈ 7.09 µM)	4 (≈ 14.2 µM)	–	–	–	–
Cc1ncc([N+](=O)[O-])n1CCO [METRONIDAZOLE]	32 (≈ 187 µM)	2 (≈ 11.7 µM)	16 (≈ 93.5 µM)	–	0.76	33	–
O=C(O)c1ccc2c(c1)C(=O)c1ccccc1C2=O	0.25 (≈ 0.991 µM)	0.5 (≈ 1.98 µM)	1 (≈ 3.96 µM)	–	–	–	–
COc1ccc2c(c1)C(=O)c1cc(CO)ccc1C2=O	8 (≈ 29.8 µM)	8 (≈ 29.8 µM)	8 (≈ 29.8 µM)	–	–	–	–
CO[C@@H]1Cc2c(c(O[C@@H]3O[C@H](C)[C@@H](O)[C@H](O)[C@H]3O)c3ccccc3c2O[C@@H]2O[C@H](CO)[C@@H](O)[C@H](O)[C@H]2O)CO1	32 (≈ 57.7 µM)	64 (≈ 115 µM)	64 (≈ 115 µM)	–	–	–	–
OC[C@H]1O[C@@H](Oc2c3c(c(O[C@@H]4O[C@H](CO)[C@@H](O)[C@H](O)[C@H]4O)c4ccccc24)COC=C3)[C@H](O)[C@@H](O)[C@@H]1O	32 (≈ 59.4 µM)	32 (≈ 59.4 µM)	32 (≈ 59.4 µM)	–	–	–	–
O=C1c2ccccc2C(=O)c2cc(CO)ccc21	8 (≈ 33.6 µM)	8 (≈ 33.6 µM)	8 (≈ 33.6 µM)	–	–	–	–
O=C1c2ccccc2C(=O)c2cnccc21	0.0625 (≈ 0.299 µM)	0.125 (≈ 0.598 µM)	0.0625 (≈ 0.299 µM)	512	4.65	51	100
OC[C@H]1O[C@@H](Oc2c3c(c(O[C@@H]4O[C@H](CO)[C@@H](O)[C@H](O)[C@H]4O)c4ccccc24)CC(O)OC3)[C@H](O)[C@@H](O)[C@@H]1O (stereo not given in full)	> 64	> 64	> 64	–	–	–	–
CO[C@H]1Cc2c(c(O[C@@H]3O[C@H](C)[C@@H](O)[C@H](O)[C@H]3O)c3ccccc3c2O[C@@H]2O[C@H](CO)[C@@H](O)[C@H](O)[C@H]2O)CO1	> 64	> 64	> 64	–	–	–	–
